The numbers were not newly measured in US9579356B2, “Dietary supplements for reducing cholesterol levels” (RELIV INTERNATIONAL INC., priority 2006, dated 2017), which cites them from elsewhere.

Data set [1] deals with patients with LDL-cholesterol levels exceeding 160 mg/dl. To be noted: after eight weeks; policosanol 10 mg/day, lovastatin 20 mg/day, simvastatin 10 mg/day.
Data set [2] concerns rats which were fed a high cholesterol diet.
The test system of a further data set is rats. To be noted: dietary supplementation.
For data set [3], the system named is individuals having initial total cholesterol levels exceeding 260 mg/dL. Conditions: 15 grams daily, three weeks.
The test system of data set [4] is individuals having total cholesterol levels ranging from 210 to 326 mg/dL. To be noted: 3.5 g daily, after two weeks.

In the case of `CC[C@H](C)C(=O)O[C@H]1C[C@@H](C)C=C2C=C[C@H](C)[C@H](CC[C@@H]3C[C@@H](O)CC(=O)O3)[C@H]21` [lovastatin], in data set [1], the “reduced LDL-cholesterol levels” value is “about 22%”.

Consider `Oc1ccc(C=Cc2cc(O)cc(O)c2)cc1` [Resveratrol], for which, in the data set with human neutrophils, the leukotriene production entry was “induce”. Also, in data set [2], the “cholesterol and triglyceride liver deposition” value is “inhibited”; the “low-density lipoprotein (LDL) cholesterol levels” value is reported as “lowered”; the “ratio of total cholesterol to high-density lipoprotein (HDL) cholesterol” value is recorded as “reduced”; the serum triglyceride levels entry is reported as “lowered”.

Regarding `O=C([O-])[C@@H](O)[C@@H](O)[C@H](O)[C@@H](O)C(=O)[O-].[Ca+2]` [calcium D-glucarate], in the data set on rats, the “lowering VLDL cholesterol” value is on record as “did not demonstrate similar effects” and the lowering total triglycerides result was “did not demonstrate similar effects”.

beta-glucan: in data set [3], the “reduced LDL cholesterol” value is reported as “about 23%” and the reduced total cholesterol entry is reported as “about 19%”. In addition, the “reduction in total cholesterol” value in data set [4] is 5.4%.

On to `O=C(O)[C@@H](O)[C@@H](O)[C@H](O)[C@@H](O)C(=O)[O-].[K+]` [potassium hydrogen D-glucarate], for which, in the data set on rats, the “lowering VLDL cholesterol” value is “effective” and the lowering total triglycerides result was “effective”.
